Measured values as given in PMC12860872, “Preclinical evaluation of DOTAGA.Glu.(FAPI)2 and DO3A.Glu.(FAPI)2 as theranostics with human dosimetry extrapolation to lutetium-177 and terbium-161 analogs” (European Journal of Nuclear Medicine and Molecular Imaging, 2025).
pKd: −log10 of the molar value. “And” between values parts separate entries of the source, which are not always exact repeats. Equal values may be shown once.

How the values were obtained:
[1] = system: PC3-mice; test: Biodistribution in PC3-mice incl. blocking; type: in vivo, mouse; settings: PC3-mice
Experimental: Male athymic Balb/C nude mice (6 weeks/20–25 g) were implanted with PC3 cells (3.5 × 10^6/100 µL PBS) into their right shoulder to develop tumors. The animals were used for biodistribution and PET/SPECT/CT imaging studies, once tumors reached 250–300 mm^3.
All mice were euthanized with intraperitoneal injection of pentobarbital (150 mg/kg), and selected organs were dissected, weighed, and measured for radioactivity using a gamma-counter. Results are expressed as % injected activity per gram tissue (% I.A./g), presented as mean ± SD (n = 3–4).

[2] = target: T1, FAP (Homo sapiens, UniProt Q12884); test: Saturation binding on FAP+ CAFs; settings: listed as 68/natGa-DO3A.Glu.(FAPI)2
T1 construct: the CAF cells overexpressing FAP were seeded at a density of 0.8-1 million cells per well; host or cells: hTERT PF179T prostate cancer-associated fibroblasts
T1 sequence (Q12884 1-760): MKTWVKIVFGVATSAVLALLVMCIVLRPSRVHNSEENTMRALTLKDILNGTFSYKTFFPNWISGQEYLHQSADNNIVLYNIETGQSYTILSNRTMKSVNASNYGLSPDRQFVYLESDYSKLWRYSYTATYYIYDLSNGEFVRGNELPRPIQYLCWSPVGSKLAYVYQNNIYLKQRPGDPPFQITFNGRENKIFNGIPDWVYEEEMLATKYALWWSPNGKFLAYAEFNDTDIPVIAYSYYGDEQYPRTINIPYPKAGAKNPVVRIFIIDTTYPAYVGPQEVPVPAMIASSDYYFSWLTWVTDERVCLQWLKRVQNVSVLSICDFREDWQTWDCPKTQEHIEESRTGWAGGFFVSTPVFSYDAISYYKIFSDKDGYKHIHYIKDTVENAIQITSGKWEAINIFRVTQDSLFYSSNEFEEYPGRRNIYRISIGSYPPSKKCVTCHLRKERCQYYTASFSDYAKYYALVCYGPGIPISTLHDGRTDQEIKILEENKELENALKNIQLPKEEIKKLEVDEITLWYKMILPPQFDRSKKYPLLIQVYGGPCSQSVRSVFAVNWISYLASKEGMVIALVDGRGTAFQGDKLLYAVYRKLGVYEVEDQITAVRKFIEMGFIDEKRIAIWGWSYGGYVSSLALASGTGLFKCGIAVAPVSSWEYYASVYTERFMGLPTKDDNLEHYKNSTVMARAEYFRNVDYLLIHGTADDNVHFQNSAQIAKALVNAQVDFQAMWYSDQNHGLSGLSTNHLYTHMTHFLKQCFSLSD
Experimental: For receptor saturation studies, FAP^+ CAFs were incubated with 0.1 to 10 nM of the radioligands. For internalization studies, approximately 2.5 pmol of the radioligands were added to CAFs followed by incubation for 15, 30, 60, 90, 120, 180 and 240 min for the ^68Ga-labeled or 30, 60, 120, 240 and 360 min for the ^177Lu-labeled radioligands at 37 °C, 5% CO2. For the externalization studies, approximately 2.5 pmol of the ^177Lu-labeled radioligands were added to CAFs followed by incubation for 2 h at 37 °C, 5% CO2. The amount of externalized activity was measured at 0, 10, 20, 30, 60, 120, 240, and 1440 min (Supplemental Data).
For receptor saturation analysis, the CAF cells overexpressing FAP were seeded at a density of 0.8-1 million cells per well in 6-well plates, pre-coated with BME (Cultrex Reduced Growth Factor Basement Membrane Extract, RGF BME, R&D System, Minneapolis, USA) to enhance cell attachment. The cells were incubated overnight with medium (EMEM supplemented and containing 10% FBS, 100 U/mL penicillin and 100 μg/mL streptomycin). The next day, the medium was removed and the cells were incubated for 30 minutes at 37 °C, with 0.8 mL of fresh medium. Afterwards, the plates were placed on ice for 30 minutes followed by incubation with increasing concentrations of ^68/natGa- and ^177/natLu-labelled DOTAGA.Glu.(FAPI)2 and DO3A.Glu.( FAPI)2 (0.1-10 nM final concentration in the wells). After the addition of the radioligands, the cells were incubated for 120 minutes at 4 °C. Non-specific binding was determined in the presence of UAMC1110 at a final concentration of 1 μM. After the completion of the incubation, the cells were washed twice with ice-cold PBS, followed by solubilization with 1 M NaOH. The cell-associated radioactivity was measured using a gamma-counter. Specific binding was plotted against the total molar concentration of the added radiotracer. The Kd values and the concentration of the radioligand required to saturate the receptors (Bmax) were determined by nonlinear regression using GraphPad (Prism 8 Graph Pad Software, San Diego, CA). For all the cell studies the values are normalized for 1x10^6 cells per well and all data are from two independent experiments with triplicates in each experiment.

[3] = Blocking 1h (20 nmol unlabeled precursor)

Uptake in Adrenal ([1]; 1 h p.i.): 3.6±1.1 %I.A./g | Uptake in Blood ([1]; 1 h p.i.): 2±0.1 %I.A./g | Uptake in Bone ([1]; 1 h p.i.): 5±3.1 %I.A./g | Uptake in Gallbladder ([1]; 1 h p.i.): 2.3±1.8 %I.A./g | Uptake in Heart ([1]; 1 h p.i.): 1±0.1 %I.A./g | Uptake in Intestine ([1]; 1 h p.i.): 0.9±0.2 %I.A./g | Uptake in Kidney ([1]; 1 h p.i.): 6.7±1.7 %I.A./g | Uptake in Liver ([1]; 1 h p.i.): 4.2±1.2 %I.A./g | Uptake in Lung ([1]; 1 h p.i.): 3.8±1 %I.A./g | Uptake in Muscle ([1]; 1 h p.i.): 2±0.03 %I.A./g | Uptake in Pancreas ([1]; 1 h p.i.): 1.8±0.1 %I.A./g | Uptake in Salivary glands ([1]; 1 h p.i.): 6.4±0.5 %I.A./g | Uptake in Spleen ([1]; 1 h p.i.): 1.3±0.3 %I.A./g | Uptake in Stomach ([1]; 1 h p.i.): 0.9±0.1 %I.A./g | Uptake in Tumor ([1]; 1 h p.i.): 19±2.4 %I.A./g | Uptake in Adrenal ([1]; 2 h p.i.): 2.5±0.8 %I.A./g | Uptake in Blood ([1]; 2 h p.i.): 2.2±0.1 %I.A./g | Uptake in Bone ([1]; 2 h p.i.): 6.3±1 %I.A./g | Uptake in Gallbladder ([1]; 2 h p.i.): 3.5±1.8 %I.A./g | Uptake in Heart ([1]; 2 h p.i.): 0.8±0.03 %I.A./g | Uptake in Intestine ([1]; 2 h p.i.): 1±0.2 %I.A./g | Uptake in Kidney ([1]; 2 h p.i.): 4.4±0.8 %I.A./g | Uptake in Liver ([1]; 2 h p.i.): 3.3±0.9 %I.A./g | Uptake in Lung ([1]; 2 h p.i.): 2.5±0.6 %I.A./g | Uptake in Muscle ([1]; 2 h p.i.): 1.3±0.3 %I.A./g | Uptake in Pancreas ([1]; 2 h p.i.): 1.7±0.1 %I.A./g | Uptake in Salivary glands ([1]; 2 h p.i.): 5.2±0.1 %I.A./g | Uptake in Spleen ([1]; 2 h p.i.): 1.6±0.4 %I.A./g | Uptake in Stomach ([1]; 2 h p.i.): 0.9±0.1 %I.A./g | Uptake in Tumor ([1]; 2 h p.i.): 19.6 ± 0.7 %I.A./g | Uptake in Adrenal ([1]; 3 h p.i.): 2.4±0.8 %I.A./g | Uptake in Blood ([1]; 3 h p.i.): 2.2±0.1 %I.A./g | Uptake in Bone ([1]; 3 h p.i.): 5.8±1 %I.A./g | Uptake in Gallbladder ([1]; 3 h p.i.): 1.7±0.9 %I.A./g | Uptake in Heart ([1]; 3 h p.i.): 0.7±0.1 %I.A./g | Uptake in Intestine ([1]; 3 h p.i.): 0.9±0.2 %I.A./g | Uptake in Kidney ([1]; 3 h p.i.): 3.4±0.4 %I.A./g | Uptake in Liver ([1]; 3 h p.i.): 2.8±0.3 %I.A./g | Uptake in Lung ([1]; 3 h p.i.): 1.7±0.3 %I.A./g | Uptake in Muscle ([1]; 3 h p.i.): 1.1±0.1 %I.A./g | Uptake in Pancreas ([1]; 3 h p.i.): 1.4±0.1 %I.A./g | Uptake in Salivary glands ([1]; 3 h p.i.): 5±1.4 %I.A./g | Uptake in Spleen ([1]; 3 h p.i.): 1.4±0.3 %I.A./g | Uptake in Stomach ([1]; 3 h p.i.): 0.7±0.02 %I.A./g | Uptake in Tumor ([1]; 3 h p.i.): 17.5 ± 1.1 %I.A./g | Uptake in Adrenal [1, 3]: 0.1±0.6 %I.A./g | Uptake in Blood [1, 3]: 2.3±0.5 %I.A./g | Uptake in Bone [1, 3]: 0.3±0.1 %I.A./g | Uptake in Gallbladder [1, 3]: 3.5±0.3 %I.A./g | Uptake in Heart [1, 3]: 0.7±0.2 %I.A./g | Uptake in Intestine [1, 3]: 0.8±0.3 %I.A./g | Uptake in Kidney [1, 3]: 6.2±1.2 %I.A./g | Uptake in Liver [1, 3]: 3.2±0.7 %I.A./g | Uptake in Lung [1, 3]: 2.1±0.4 %I.A./g | Uptake in Muscle [1, 3]: 0.3±0.01 %I.A./g | Uptake in Pancreas [1, 3]: 0.4±0.1 %I.A./g | Uptake in Salivary glands [1, 3]: 0.7±0.1 %I.A./g | Uptake in Spleen [1, 3]: 1±0.1 %I.A./g | Uptake in Stomach [1, 3]: 0.8±0.3 %I.A./g | Uptake in Tumor [1, 3]: 1.3±0.2 %I.A./g | Blood pool retention ([1]; over 3 h): around 2 %I.A./g | tumor uptake ([1]; sustained up to 3 h p.i.): 18–19 %I.A./g | pKd ([2]; 0.1 to 10 nM radioligand): 9.05 | Bmax [2]: 0.5 ± 0.05 nM and 0.54 ± 0.05 nM
SMILES: N#C[C@@H]1CC(F)(F)CN1C(=O)CNC(=O)c1ccnc2ccc(OCCCCNC(=O)CC[C@H](NC(=O)CN3CCN(CC(=O)[O-])CCN(CC(=O)[O-])CCN(CC(=O)[O-])CC3)C(=O)NCCCCOc3ccc4nccc(C(=O)NCC(=O)N5CC(F)(F)C[C@H]5C#N)c4c3)cc12.[68Ga+3] [[^68Ga]Ga-DO3A.Glu.(FAPI)2]
